From patent US20250188069A1, “COMPOUNDS AND METHODS FOR DEGRADING CASEIN KINASE 1 ALPHA” (PIN THERAPEUTICS, INC., priority 2022, published 2025)
Structures can show the parent of a compound that is named as a salt. Where two headings read alike, the source gives them in different places.

Columns and labels:
MV-4-11 cells = experiment: AML cell viability assay (RealTime-Glo); type: cell-based; details: Homo sapiens, read-out: Cell viability classification
CK1α = CK1α (Homo sapiens, UniProt P48729+Q96SW2); experiment: CK1α degradation, flow cytometry in MV4-11 cells; type: cell-based; design: CK1α levels were determined in MV-4-11 cells using Jess (Protein Simple); host or cells: MV-4-11; details: % reduction of CK1α compared to DMSO, MV4-11 cells at 316 nM for 16 hours, read-out: CK1α degradation classification
Sequence of CK1α (P48729 whole entry): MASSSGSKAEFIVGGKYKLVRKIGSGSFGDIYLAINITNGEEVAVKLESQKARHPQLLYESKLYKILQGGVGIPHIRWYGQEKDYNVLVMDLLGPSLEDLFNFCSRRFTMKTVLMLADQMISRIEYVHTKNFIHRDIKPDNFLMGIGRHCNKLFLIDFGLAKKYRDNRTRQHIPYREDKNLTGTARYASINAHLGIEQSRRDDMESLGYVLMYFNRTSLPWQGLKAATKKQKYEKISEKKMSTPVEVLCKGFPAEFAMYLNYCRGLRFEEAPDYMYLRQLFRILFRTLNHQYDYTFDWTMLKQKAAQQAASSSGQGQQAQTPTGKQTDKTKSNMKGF
Sequence of CK1α (Q96SW2 whole entry): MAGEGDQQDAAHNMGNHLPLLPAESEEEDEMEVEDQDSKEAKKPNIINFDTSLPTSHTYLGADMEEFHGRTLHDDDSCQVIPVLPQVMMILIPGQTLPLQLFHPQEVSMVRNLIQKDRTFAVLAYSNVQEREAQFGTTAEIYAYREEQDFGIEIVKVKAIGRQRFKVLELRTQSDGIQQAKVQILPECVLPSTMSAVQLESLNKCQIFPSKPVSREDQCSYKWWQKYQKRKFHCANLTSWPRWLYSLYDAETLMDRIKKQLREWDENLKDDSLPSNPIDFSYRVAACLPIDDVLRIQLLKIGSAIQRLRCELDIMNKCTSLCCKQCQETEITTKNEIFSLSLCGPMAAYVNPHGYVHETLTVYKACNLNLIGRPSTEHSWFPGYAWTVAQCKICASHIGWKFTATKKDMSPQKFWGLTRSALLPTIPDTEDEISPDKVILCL
Sequence of CK1α (Q16531 whole entry partner): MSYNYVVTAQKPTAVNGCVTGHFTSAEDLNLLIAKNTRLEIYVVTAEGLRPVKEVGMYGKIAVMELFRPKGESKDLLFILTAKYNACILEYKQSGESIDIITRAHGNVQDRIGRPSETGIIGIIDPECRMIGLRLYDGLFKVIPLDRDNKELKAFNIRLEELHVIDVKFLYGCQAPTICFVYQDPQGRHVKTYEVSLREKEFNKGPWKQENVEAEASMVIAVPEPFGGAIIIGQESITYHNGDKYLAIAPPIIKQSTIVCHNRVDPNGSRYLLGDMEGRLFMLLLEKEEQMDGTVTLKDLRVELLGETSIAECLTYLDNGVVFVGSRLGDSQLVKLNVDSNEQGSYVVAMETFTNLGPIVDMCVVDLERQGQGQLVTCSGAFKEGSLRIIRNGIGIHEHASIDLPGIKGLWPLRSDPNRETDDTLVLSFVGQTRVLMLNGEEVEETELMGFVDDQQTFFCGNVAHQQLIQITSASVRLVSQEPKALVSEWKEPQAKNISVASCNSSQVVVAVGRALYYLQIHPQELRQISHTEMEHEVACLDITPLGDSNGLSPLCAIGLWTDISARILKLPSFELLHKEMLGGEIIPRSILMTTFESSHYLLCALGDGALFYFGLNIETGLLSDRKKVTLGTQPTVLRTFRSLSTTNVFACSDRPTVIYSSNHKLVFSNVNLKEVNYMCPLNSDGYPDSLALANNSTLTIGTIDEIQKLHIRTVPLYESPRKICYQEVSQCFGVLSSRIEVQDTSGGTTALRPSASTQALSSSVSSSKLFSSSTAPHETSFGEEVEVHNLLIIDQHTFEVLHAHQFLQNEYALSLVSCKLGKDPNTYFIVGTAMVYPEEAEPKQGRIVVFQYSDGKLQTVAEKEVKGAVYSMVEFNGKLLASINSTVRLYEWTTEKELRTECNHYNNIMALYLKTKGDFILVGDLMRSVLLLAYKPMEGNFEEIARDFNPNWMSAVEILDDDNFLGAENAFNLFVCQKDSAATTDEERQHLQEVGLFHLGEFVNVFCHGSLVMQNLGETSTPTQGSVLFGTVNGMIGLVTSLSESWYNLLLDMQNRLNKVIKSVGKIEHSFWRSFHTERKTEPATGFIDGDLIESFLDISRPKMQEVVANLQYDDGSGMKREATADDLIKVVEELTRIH
Experimental: MV-4-11 cells were obtained from ATCC and grown in IMDM supplemented with 10% FBS. The cells were maintained at 37° C. under 5% CO2.
Compounds of the present disclosure were added to cells (final DMSO concentration of 0.5%) and incubated for 16 hours. CK1α level was determined in MV4-11 cells using flow cytometry (Luminex, Guava EasyCyte Plus). Briefly, cells were prepared with sequential 10% formalin and 70% methanol fixation. […] GuavaSoft Incyte software was used to analyse the flow cytometry data. Protein levels relative to DMSO are calculated for CK1α.
The efficacy of CK1α degradation of other part of compounds of the present disclosure was determined by treating MV4-11 cells at […] (Final DMSO concentration of 0.5%) for 16 hours. Protein levels relative to DMSO are calculated for CK1α.
Protein levels relative to DMSO are calculated for CK1α.

[1] = MV4-11, IC50 class, MV-4-11 cells, RealTime-Glo after 44 hrs of treatment (TABLE 3)

With `CC(CC(F)(F)F)N[C@H]1CC[C@H](N(CCC2CC2)c2cccc3c2CN(C2CCC(=O)NC2=O)C3=O)CC1` (stereo partly shown) [Compound 547, 3-{4-[(2-cyclopropylethyl)[(1r,4r)-4-[(4,4,4-trifluorobutan-2-yl)amino]cyclohexyl]amino]-1-oxo-3H-isoindol-2-yl}piperidine-2,6-dione] the IC50 (MV-4-11 cells; [1]) was less than 100 nM and the Dmax at 0.316 µM (CK1α) was greater than 75%.
Compound `O=C1CCC(N2Cc3c(cccc3N(CCC3CC3)[C@H]3CC[C@H](NCC(F)F)CC3)C2=O)C(=O)N1` (stereo partly shown) [Compound 539, 3-{4-[(2-cyclopropylethyl)[(1s,4s)-4-[(2,2-difluoroethyl)amino]cyclohexyl]amino]-1-oxo-3H-isoindol-2-yl}piperidine-2,6-dione] has an IC50 (MV-4-11 cells; [1]) of 100 to 1000 nM and a Dmax at 0.316 µM (CK1α) of 50 to 75%.
`CCCCCN(c1cccc2c1CN(C1CCC(=O)NC1=O)C2=O)[C@H]1CC[C@@H](C(=O)NC)CC1` (stereo partly drawn) [Compound 308, (1S,4S)-4-((2-(2,6-dioxopiperidin-3-yl)-1-oxoisoindolin-4-yl)(pentyl)amino)-N-methylcyclohexane-1-carboxamide] showed an IC50 (MV-4-11 cells; [1]) of less than 100 nM and a Dmax at 0.316 µM (CK1α) greater than 75%.
`NC[C@H]1CC[C@@H](N(CCC2CC2)c2cccc3c2CN(C2CCC(=O)NC2=O)C3=O)C1` (stereo partly drawn) [Compound 326A, 3-(4-(((1R,3S)-3-(aminomethyl)cyclopentyl)(2-cyclopropylethyl)amino)-1-oxoisoindolin-2-yl)piperidine-2,6-dione, HCl] gave an IC50 (MV-4-11 cells; [1]) of less than 100 nM and a Dmax at 0.316 µM (CK1α) greater than 75%.
Compound `CCCCCN(c1cccc2c1CN(C1CCC(=O)NC1=O)C2=O)[C@H]1CC[C@H](NCC2CC2)CC1` (stereo partly drawn) [Compound 313, 3-(4-(((1R,4R)-4-((cyclopropylmethyl)amino)cyclohexyl)(pentyl)amino)-1-oxoisoindolin-2-yl)piperidine-2,6-dione hydrochloride] has an IC50 (MV-4-11 cells; [1]) of less than 100 nM and a Dmax at 0.316 µM (CK1α) greater than 75%.
With `C[C@@H](N[C@H]1CC[C@@H](N(CCC2CC2)c2cccc3c2CN(C2CCC(=O)NC2=O)C3=O)CC1)C(F)(F)F` (stereo partly drawn) [Compound 548A, 3-(4-((2-cyclopropylethyl)((1s,4s)-4-(((R)-1,1,1-trifluoropropan-2-yl)amino)cyclohexyl)amino)-1-oxoisoindolin-2-yl)piperidine-2,6-dione] the IC50 (MV-4-11 cells; [1]) was 100 to 1000 nM and the Dmax at 0.316 µM (CK1α) was 50 to 75%.
For `CCCCCN(c1cccc2c1CN(C1CCC(=O)NC1=O)C2=O)[C@H]1CC[C@H](NC)CC1` (stereo partly drawn) [Compound 169, 3-(4-(((1R,4R)-4-(methylamino)cyclohexyl)(pentyl)amino)-1-oxoisoindolin-2-yl)piperidine-2,6-dione hydrochloride], the IC50 (MV-4-11 cells; MV4-11, 44 h) was less than 100 nM and the Dmax at 0.316 µM (CK1α) was greater than 75%.
Compound `N[C@H]1CC[C@H](N(CCC2CCNCC2)c2cccc3c2CN(C2CCC(=O)NC2=O)C3=O)CC1` (stereo partly shown) [Compound 239, 3-(4-(((1r,4r)-4-aminocyclohexyl) (2-(piperidin-4-yl)ethyl)amino)-1-oxoisoindolin-2-yl) piperidine-2,6-dione, 2HCl] has an IC50 (MV-4-11 cells; [1]) greater than 1000 nM and a Dmax at 0.316 µM (CK1α) of less than 50%.
With `O=C1CCC(N2Cc3c(cccc3N(CCCC(F)(F)F)[C@H]3CC[C@H](NCCC(F)(F)F)CC3)C2=O)C(=O)N1` (stereo partly shown) [Compound 513, 3-(1-oxo-4-((4,4,4-trifluorobutyl)((1r,4r)-4-((3,3,3-trifluoropropyl)amino)cyclohexyl)amino)isoindolin-2-yl)piperidine-2,6-dione] the IC50 (MV-4-11 cells; [1]) was 100 to 1000 nM and the Dmax at 0.316 µM (CK1α) was greater than 75%.
`O=C1CCC(N2Cc3c(cccc3N(CC3CC3)[C@H]3CC[C@H](NC4CC(F)(F)C4)CC3)C2=O)C(=O)N1` (stereo partly shown) [Compound 532, 3-(4-((cyclopropylmethyl)((lr,4r)-4-((3,3-difluorocyclobutyl)amino)cyclohexyl)amino)-1-oxoisoindolin-2-yl)piperidine-2,6-dione] showed an IC50 (MV-4-11 cells; [1]) of less than 100 nM and a Dmax at 0.316 µM (CK1α) greater than 75%.
`CCCCCN(c1cccc2c1CN(C1CCC(=O)NC1=O)C2=O)[C@H]1CC[C@H](C(N)=O)CC1` (stereo partly drawn) [Compound 305, (1R,4R)-4-((2-(2,6-dioxopiperidin-3-yl)-1-oxoisoindolin-4-yl)(pentyl)amino)cyclohexane-1-carboxamide] showed an IC50 (MV-4-11 cells; [1]) of less than 100 nM and a Dmax at 0.316 µM (CK1α) greater than 75%.
In the case of `NC[C@]1(O)CC[C@H](N(CC2CC2)c2cccc3c2CN(C2CCC(=O)NC2=O)C3=O)CC1` (stereo partly shown) [Compound 536, 3-(4-(((1r,4r)-4-(aminomethyl)-4-hydroxycyclohexyl)(cyclopropylmethyl)amino)-1-oxoisoindolin-2-yl)piperidine-2,6-dione], the IC50 (MV-4-11 cells; [1]) is reported as 100 to 1000 nM and the Dmax at 0.316 µM (CK1α) is reported as less than 50%.
In the case of `NC[C@]1(O)CC[C@H](N(CCCC(F)(F)F)c2cccc3c2CN(C2CCC(=O)NC2=O)C3=O)CC1` (stereo partly shown) [Compound 530, 3-(4-(((1r,4r)-4-(aminomethyl)-4-hydroxycyclohexyl)(4,4,4-trifluorobutyl)amino)-1-oxoisoindolin-2-yl)piperidine-2,6-dione], the IC50 (MV-4-11 cells; [1]) is reported as greater than 1000 nM and the Dmax at 0.316 µM (CK1α) is reported as less than 50%.
`CCCCCN(CCC1(CN)CCCCC1)c1cccc2c1CN(C1CCC(=O)NC1=O)C2=O` (stereo not shown) [Compound 255, 3-(4-((2-(1-(aminomethyl)cyclohexyl)ethyl) (pentyl)amino)-1-oxoisoindolin-2-yl) piperidine-2,6-dione, Formic Acid] showed an IC50 (MV-4-11 cells; [1]) of 100 to 1000 nM and a Dmax at 0.316 µM (CK1α) of 50 to 75%.
In the case of `CC(C)CN(c1cccc2c1CN(C1CCC(=O)NC1=O)C2=O)[C@H]1CC[C@H](N)CC1` (stereo partly shown) [Compound 236, 3-(4-(((1r,4r)-4-aminocyclohexyl)(isobutyl)amino)-1-oxoisoindolin-2-yl)piperidine-2,6-dione. HCl], the IC50 (MV-4-11 cells; [1]) is reported as 100 to 1000 nM and the Dmax at 0.316 µM (CK1α) is reported as greater than 75%.
With `CCCCCN(c1cccc2c1CN(C1CCC(=O)NC1=O)C2=O)[C@H]1CC[C@H](NCC)CC1` (stereo partly shown) [Compound 309, 3-(4-(((1r,4r)-4-(ethylamino)cyclohexyl)(pentyl)amino)-1-oxoisoindolin-2-yl)piperidine-2,6-dione, HCl] the IC50 (MV-4-11 cells; [1]) was less than 100 nM and the Dmax at 0.316 µM (CK1α) was greater than 75%.
With `CCCCCN(c1cccc2c1CN(C1CCC(=O)NC1=O)C2=O)[C@H]1CC[C@@H](C(N)=O)CC1` (stereo partly drawn) [Compound 307, (1S,4S)-4-((2-(2,6-dioxopiperidin-3-yl)-1-oxoisoindolin-4-yl)(pentyl)amino)cyclohexane-1-carboxamide] the IC50 (MV-4-11 cells; [1]) was less than 100 nM and the Dmax at 0.316 µM (CK1α) was greater than 75%.
With `NC[C@H]1CC[C@@H](N(CCC2CC2)c2cccc3c2CN(C2CCC(=O)NC2=O)C3=O)CO1` (stereo partly drawn) [Compound 522, 3-(4-{[(3R,6R)-6-(aminomethyl)oxan-3-yl](2-cyclopropylethyl)amino}-1-oxo-3H-isoindol-2-yl)piperidine-2,6-dione] the IC50 (MV-4-11 cells; [1]) was less than 100 nM and the Dmax at 0.316 µM (CK1α) was greater than 75%.
For `O=C1CCC(N2Cc3c(cccc3N(CCCC(F)(F)F)[C@H]3CC[C@H](NC4CC(F)(F)C4)CC3)C2=O)C(=O)N1` (stereo partly shown) [Compound 512, 3-(4-(((1r,4r)-4-((3,3-difluorocyclobutyl)amino)cyclohexyl)(4,4,4-trifluorobutyl)amino)-1-oxoisoindolin-2-yl)piperidine-2,6-dione], the IC50 (MV-4-11 cells; [1]) was 100 to 1000 nM and the Dmax at 0.316 µM (CK1α) was 50 to 75%.
With `CCCCCN(c1cccc2c1CN(C1CCC(=O)NC1=O)C2=O)[C@H]1CC[C@H](NCC(C)C)CC1` (stereo partly shown) [Compound 311, 3-(4-(((1r,4r)-4-(isobutylamino)cyclohexyl)(pentyl)amino)-1-oxoisoindolin-2-yl)piperidine-2,6-dione, HCl] the IC50 (MV-4-11 cells; [1]) was less than 100 nM and the Dmax at 0.316 µM (CK1α) was greater than 75%.
`N[C@H]1CC[C@H](N(CCCC2CCOCC2)c2cccc3c2CN(C2CCC(=O)NC2=O)C3=O)CC1` (stereo partly shown) [Compound 242, 3-(4-(((1r,4r)-4-aminocyclohexyl)(3-(tetrahydro-2H-pyran-4-yl)propyl)amino)-1-oxoisoindolin-2-yl)piperidine-2,6-dione hydrochloride] gave an IC50 (MV-4-11 cells; [1]) of less than 100 nM and a Dmax at 0.316 µM (CK1α) greater than 75%.
In the case of `CCCCCN(CCCCNCCCC)c1cccc2c1CN(C1CCC(=O)NC1=O)C2=O` (stereo not shown) [Compound 166, 3-(4-((4-(butylamino)butyl)(pentyl)amino)-1-oxoisoindolin-2-yl)piperidine-2,6-dione, HCl], the IC50 (MV-4-11 cells; MV4-11, 44 h) is reported as 100 to 1000 nM and the Dmax at 0.316 µM (CK1α) is reported as greater than 75%.
For `COC(C)(C)CN[C@H]1CC[C@H](N(CCC2CC2)c2cccc3c2CN(C2CCC(=O)NC2=O)C3=O)CC1` (stereo partly shown) [Compound 541, 3-(4-((2-cyclopropylethyl)((1r,4r)-4-((2-methoxy-2-methylpropyl)amino)cyclohexyl)amino)-1-oxoisoindolin-2-yl)piperidine-2,6-dione], the IC50 (MV-4-11 cells; [1]) was less than 100 nM and the Dmax at 0.316 µM (CK1α) was greater than 75%.
Work on `O=C1CCC(N2Cc3c(cccc3N(CCC3CC3)[C@H]3CC[C@H](NC4COC4)CC3)C2=O)C(=O)N1` (stereo partly shown) [Compound 517, 3-(4-((2-cyclopropylethyl)((1r,4r)-4-(oxetan-3-ylamino)cyclohexyl)amino)-1-oxoisoindolin-2-yl)piperidine-2,6-dione] yielded an IC50 (MV-4-11 cells; [1]) of less than 100 nM and a Dmax at 0.316 µM (CK1α) greater than 75%.
`N[C@@H]1CC[C@@H](N(CC2CC2)c2cccc3c2CN(C2CCC(=O)NC2=O)C3=O)C[C@H]1F` (stereo partly drawn) [Compound 535, 3-(4-(((1R,3R,4R)-4-amino-3-fluorocyclohexyl)(cyclopropylmethyl)amino)-1-oxoisoindolin-2-yl)piperidine-2,6-dione; formic acid] gave an IC50 (MV-4-11 cells; [1]) of less than 100 nM and a Dmax at 0.316 µM (CK1α) of 50 to 75%.
Compound `O=C1CCC(N2Cc3c(cccc3N(CC3CC3)[C@H]3CC[C@H](NCCC(F)(F)F)CC3)C2=O)C(=O)N1` (stereo partly shown) [Compound 533, 3-(4-((cyclopropylmethyl)((1r,4r)-4-((3,3,3-trifluoropropyl)amino)cyclohexyl)amino)-1-oxoisoindolin-2-yl)piperidine-2,6-dione] has an IC50 (MV-4-11 cells; [1]) of less than 100 nM and a Dmax at 0.316 µM (CK1α) greater than 75%.
